Assay: ID50 determination of amastatin preparations (inhibitory activity)
Format: biochemical

| Substance | ID50 [µg/mL] |
| --- | --- |
| amastatin A2 | 0.54 |
| amastatin RB1 | 1.50 |
| amastatin B2 | 1.0 |
| amastatin A2 dimethyl ester | 17 |
| N-acetyl amastatin A2 | 450 |
| amastatin A3 | 1.0 |
| amastatin A1 | 0.65 |
| hydrochloric acid salt of amastatin A1 [HCl A1] | 0.75 |

— patent US4126606A, “Physiologically active peptides and a process for preparation thereof” (Zaidan Hojin Biseibutsu Kagaku Kenkyu Kai, priority 1976, dated 1978)
